The source of these data is patent US4032659A (priority 1975, dated 1977).

Common to all, as to format: in vivo, mouse
The test system of test [1] is Herpes virus. The conditions noted are these: oral.
Test [2] deals with Influenza B Massachusetts virus. Put plainly: Chemoprophylaxis of Influenza B Massachusetts virus infection in mice. The note with it: oral. The method, then:
The activity of four compounds on Influenza B Mass. was tested in mice.
A portion of a commercially available sample of amantadine was recrystallized from isopropanol. The activity of the material against Influenza B Mass. was tested for the sample as obtained, the recrystallized portion, and the mother liquor obtained from recrystallizing the portion.

Test [3] relates to Influenza Ann Arbor virus. Put plainly: Chemoprophylaxis of Influenza Ann Arbor (A1) virus infection in mice.
Setting [4] is: subcutaneous, total dose .003 μg.

Where a name gives a salt, the structure may show the parent alone. Read-outs that look alike come from different tables or passages of the source.

`NNC(=S)NC12CC3CC(CC(C3)C1)C2`: the “No. animals surviving when 18/20 of controls are dead” value in test [1] (total dose 4pg) was 1; in test [1] (total dose 40pg) it was 1; in test [1] (total dose 400pg), 3; in test [1] (total dose 4ng) it was 2; in test [1] (total dose 40ng) it was 2; in test [1] (total dose 400ng), 3. Also, the Survivors stood at 1 in test [1] (total dose 4pg); 1 in test [1] (total dose 40pg); 3 in test [1] (total dose 400pg); 2 in test [1] (total dose 4ng); 2 in test [1] (total dose 40ng); 3 in test [1] (total dose 400ng).

As to `NC12CC3CC(CC(C3)C1)C2` [Recrystallized amantadine, amantadine, reference compound], the “No. animals surviving after 11 days” value is 4 in test [2] (total dose 60 ng); 3 in test [2] (total dose 600 ng); 5 in test [2] (total dose 6 μg); 5 in test [2] (total dose 60 μg); 3 in test [2] (total dose 600 μg); 6 in test [2] (total dose 6 mg). Further, the Survivors in test [2] (total dose 60 ng) is listed as 2; in test [2] (total dose 600 ng) it was 3; in test [2] (total dose 6 μg), 5; in test [2] (total dose 60 μg) it was 2; in test [2] (total dose 600 μg), 2; in test [2] (total dose 6 mg) it was 4.

For `NC(=S)NN=C1CCCCC1` [Cyclohexanone, thiosemicarbazone], the “No. animals surviving after 11 days” value came to 7 in test [2] (total dose 5pg); 4 in test [2] (total dose 50pg); 2 in test [2] (total dose 500pg); 3 in test [2] (total dose 5ng); 7 in test [2] (total dose 50ng); 2 in test [2] (total dose 500ng). In addition, the “No. animals surviving when 16/20 of controls are dead” value in test [2] (total dose 5pg) worked out at 5; in test [2] (total dose 50pg), 3; in test [2] (total dose 500pg), 2; in test [2] (total dose 5ng), 2; in test [2] (total dose 50ng), 7; in test [2] (total dose 500ng), 1. In addition, the Survivors in test [2] (total dose 5pg) is given as 5; in test [2] (total dose 50pg) it was 2; in test [2] (total dose 500pg), 2; in test [2] (total dose 5ng), 2; in test [2] (total dose 50ng), 5; in test [2] (total dose 500ng), 1.

For the compound `N=C(N)NN` [aminoguanidine, bicarbonate], the Survivors in test [2] (total dose 40pg) is listed as 0; in test [2] (total dose 4ng) it was 0; in test [2] (total dose 40ng) it was 1; in test [2] (total dose 400ng), 1; in test [2] (total dose 4μg) it was 1.

With `NC(=S)NN=C1Cc2ccccc2C1` [2-indanone, thiosemicarbazone], the “No. animals surviving after 5 days” value in test [3] (oral, total dose 30 pg) is 8; in test [3] (oral, total dose 300 pg), 8; in test [3] (oral, total dose 3 ng), 5; in test [3] (oral, total dose 30 ng), 9; in test [3] (oral, total dose 300 ng) it was 8; in test [3] (oral, total dose 3 μg) it was 8. The “No. animals surviving after 5 days” value in test [3] (oral, total dose 30 μg) was found to be 8; in test [3] (oral, total dose 300 μg) it was 6. The Survivors in test [3] (oral, total dose 30 pg) was 1; in test [3] (oral, total dose 300 pg) it was 0; in test [3] (oral, total dose 3 ng), 0; in test [3] (oral, total dose 30 ng) it was 0; in test [3] (oral, total dose 300 ng), 1; in test [3] (oral, total dose 3 μg) it was 1. For the same compound, the Survivors in test [3] (oral, total dose 30 μg) is reported as 0; in test [3] (oral, total dose 300 μg), 0.

`N=C(N)NN` [aminoguanidine]: the “No. animals surviving after 7 days” value is listed as 6 in test [3] (oral, total dose 300 pg); 8 in test [3] (oral, total dose 3 μg); 8 in test [3] (oral, total dose 30 μg); 6 in test [3] (subcutaneous, total dose 3 μg); 8 in test [3] (subcutaneous, total dose .0003 μg); 8 in test [3] (setting [4]). Also, the Survivors in test [3] (oral, total dose 300 pg) is recorded as 1; in test [3] (oral, total dose 3 ng), 1; in test [3] (oral, total dose 30 ng), 2; in test [3] (oral, total dose 300 ng), 4; in test [3] (oral, total dose 3 μg) it was 3; in test [3] (oral, total dose 30 μg) it was 5. Moreover, the Survivors is on record as 2 in test [3] (subcutaneous, total dose 3 μg); 2 in test [3] (subcutaneous, total dose 30 μg); 0 in test [3] (setting [4]); 1 in test [3] (subcutaneous, total dose .03 μg); 1 in test [3] (subcutaneous, total dose .3 μg). In addition, the survival in test [3] (subcutaneous, one dose level) is recorded as 50%.

For the compound `O=C(CCNNC(=O)c1ccncc1)NCc1ccccc1` [Nialamide, nialamide, reference compound], the Survivors in test [3] (oral, total dose 400pg) is reported as 1; in test [3] (oral, total dose 4ng), 1; in test [3] (oral, total dose 40ng) it was 0; in test [3] (oral, total dose 400ng), 0; in test [3] (oral, total dose 4μg), 0; in test [3] (oral, total dose 400 μg), 2. For the same compound, the Survivors in test [3] (oral, total dose 4 mg) is on record as 1.

Regarding `CC(C)=NNC(N)=S` [acetone, thiosemicarbazone], the “No. animals surviving after 6 days” value in test [3] (oral, total dose 30 pg) is recorded as 3; in test [3] (oral, total dose 300 pg), 2; in test [3] (oral, total dose 3 ng), 2; in test [3] (oral, total dose 30 ng), 2; in test [3] (oral, total dose 300 ng), 3; in test [3] (oral, total dose 3 μg), 5. Moreover, the “No. animals surviving after 6 days” value in test [3] (oral, total dose 30 μg) is listed as 2; in test [3] (oral, total dose 300 μg), 3. Further, the Survivors is reported as 1 in test [3] (oral, total dose 30 pg); 0 in test [3] (oral, total dose 300 pg); 0 in test [3] (oral, total dose 3 ng); 0 in test [3] (oral, total dose 30 ng); 0 in test [3] (oral, total dose 300 ng); 0 in test [3] (oral, total dose 3 μg). The Survivors turned out to be 0 in test [3] (oral, total dose 30 μg) and 0 in test [3] (oral, total dose 300 μg).

On to `NC12CC3CC(CC(C3)C1)C2` [Commercial amantadine, amantadine, reference compound], for which the “No. animals surviving after 11 days” value in test [2] (total dose 60 ng) is recorded as 3; in test [2] (total dose 600 ng), 3; in test [2] (total dose 6 μg), 7; in test [2] (total dose 60 μg), 3; in test [2] (total dose 600 μg), 5; in test [2] (total dose 6 mg), 4. In addition, the Survivors in test [2] (total dose 60 ng) worked out at 0; in test [2] (total dose 600 ng), 3; in test [2] (total dose 6 μg) it was 5; in test [2] (total dose 60 μg) it was 2; in test [2] (total dose 600 μg) it was 5; in test [2] (total dose 6 mg) it was 2.

For `NN.O=S(=O)(O)O` [Hydrazine Sulfate, hydrazine sulfate], the Survivors was found to be 2 in test [1] (total dose 5 μg); 3 in test [1] (total dose .0005 μg); 4 in test [1] (total dose .005 μg); 0 in test [1] (total dose .05 μg); 1 in test [1] (total dose .5 μg).

Take `CNNC` [1,2-dimethylhydrazine, dihydrochloride]: the “No. animals surviving after 6 days” value in test [3] (oral, total dose 30 pg) was determined as 6; in test [3] (oral, total dose 300 pg), 2; in test [3] (oral, total dose 3 ng) it was 3; in test [3] (oral, total dose 30 ng) it was 3; in test [3] (oral, total dose 300 ng), 5; in test [3] (oral, total dose 3 μg), 3. The “No. animals surviving after 6 days” value in test [3] (oral, total dose 30 μg) is given as 4; in test [3] (oral, total dose 300 μg), 6; in test [3] (oral, total dose 3 mg) it was 3. The Survivors was 1 in test [3] (oral, total dose 30 pg); 0 in test [3] (oral, total dose 300 pg); 0 in test [3] (oral, total dose 3 ng); 1 in test [3] (oral, total dose 30 ng); 0 in test [3] (oral, total dose 300 ng); 0 in test [3] (oral, total dose 3 μg). Also, the Survivors in test [3] (oral, total dose 30 μg) came out at 0; in test [3] (oral, total dose 300 μg) it was 0; in test [3] (oral, total dose 3 mg), 0.
